Legend:
Assay type in all cases: cell-based, human
miR-184 [1] = assay: Induction of miR-184 in HPEK by differentiation agents (sqRT-PCR); details: 1 or 5 days
Description: FIG. 1: Induction of miR-184 during Ca^2+-dependent HPEK differentiation. […] Data shown represent means +SEM from 3 independent experiments. Expression was normalized to SNORD72 for miR-184 and GAPDH for IVL. Values are presented relative to 0.07 mM Ca^2+ or DMSO-treated controls;
Human progenitor epidermal keratinocytes (HPEK) were isolated from human foreskin or purchased from CellnTec (Bern, Switzerland). For isolation, tissues were washed with phosphate-buffered saline, trimmed of any subcutaneous fat, connective tissues and blood vessels before digestion with 20 mg/ml dispase (Sigma) at 4° C. overnight with further digestion for 1 hour at room temperature. Thereafter, the epidermis was separated and incubated in 0.5% TrpLE (Thermofisher scientific, Cheshire, UK) for 5 min at 37° C., 5% CO2. Keratinocytes were centrifuged (1200 rpm for 5 min) and re-suspended in CnT-Prime (CellnTec) supplemented with 1% penicillin/streptomycin/amphotericin B (PSA) and IsoBoost supplement CnT-ISO (CellnTec) to enhance isolation efficiency. Culture medium was changed every 2-3 days until cells reached 80% confluence with PSA exclusion from the culture medium after the first passage. Keratinocytes were sub-cultured using CnT-Accutase (CellnTec) and re-cultured at 4×10^3 cells per cm^2. For differentiation, keratinocytes were at 3×10^5/well of a 6-well plate in CnT-Prime and allowed to reach confluence before adjusting the medium to 1.5 mM calcium using CaCl2.
(§1) Total RNA was isolated from cells using the AllPrep DNA/RNA/miRNA Universal kit (Qiagen, Manchester, UK). RNA concentration was determined using a NanoDrop™ 2000c. Complementary DNA (cDNA) was synthesised from 400 ng of RNA using the miScript II RT kit (Qiagen) with HiFlex buffer. PCR amplifications were performed with Quantifast SYBR Green and QuantiTect miRNA/universal primers or RT^2 mRNA primer assays, all from Qiagen. Thermocycling was performed on a Rotor-Gene® as follows: 95° C. for 15 min, followed by 40 cycles of 94° C. for 15 s, 55° C. for 30 s and 70° C. for 30 s. Relative expression of miRNA and mRNA determined using the 2^−ΔΔCT relative quantification method (Livak and Schmittgen, 2001).
(§2) Expression of miR-184 in HPEK was evaluated and maintained in parallel cultures under low (0.07 mM) to sustain proliferation or high (1.5 mM) extracellular Ca^2+ to promote differentiation.

involucrin (IVL) = assay: IVL expression in HPEK treated with differentiation agents (sqRT-PCR); details: 100 nM, 5 d, normalized to GAPDH
Description: FIG. 1: Induction of miR-184 during Ca^2+-dependent HPEK differentiation. (a) HPEKs grown to confluence were treated with high (1.5 mM) Ca^2+, 100 nM 1,25(OH)D3, 100 nM PMA or dimethyl sulfoxide (DMSO) vehicle for 1 or 5 days (d). (b) Upregulation of the HPEK differentiation marker involucrin (IVL) during 5 d exposure to 1.5 mM Ca^2+, 100 nM 1,25(OH)D3 or 100 nM PMA. Data shown represent means +SEM from 3 independent experiments. Expression was normalized to SNORD72 for miR-184 and GAPDH for IVL. Values are presented relative to 0.07 mM Ca^2+ or DMSO-treated controls;
Human progenitor epidermal keratinocytes (HPEK) were isolated from human foreskin or purchased from CellnTec (Bern, Switzerland). […]
Total RNA was isolated from cells using the AllPrep DNA/RNA/miRNA Universal kit (Qiagen, Manchester, UK). RNA concentration was determined using a NanoDrop™ 2000c. […] PCR amplifications were performed with Quantifast SYBR Green and QuantiTect miRNA/universal primers or RT^2 mRNA primer assays, all from Qiagen. […] Relative expression of miRNA and mRNA determined using the 2^−ΔΔCT relative quantification method (Livak and Schmittgen, 2001).
as §2

UCA1 = assay: LncRNA UCA1 induction in scratched HPEK monolayers; details: 5 days
Description: (§3) FIG. 6: Induction of miR-184 in scratched monolayers. Confluent HPEK monolayers were scratched and cells harvested after 5 days in low (0.07 mM) or high (1.5 mM) Ca^2+ media as indicated. The SOCE blockers Gd^3+ and BTP2 and were added 1 h after scratching and refreshed after day 2. (a-d) miR-184 expression normalized to SNORD72. (c-d) LncRNA UCA1 expression normalised to GAPDH; and
as §1
The long non-coding RNA UCA1 (urothelial carcinoma associated 1) has been identified as a competing endogenous RNA (ceRNA) with four predicted miR-184-binding sites (Zhou et al., 2017). The expression of UCA1 in the HPEK was therefore examined. […]

ORAI1 = ORAI1 expression in HPEK; details: data not shown
Source text: To determine whether Ca^2+-dependent induction of miR-184 was associated with SOCE, HPEK were maintained in high Ca^2+ for 5 days in the presence of the SOCE blocker gadolinium (III) Gd^3+ or the pharmacologic ORAI1 inhibitor BTP2. Alternatively, ORAI1 expression was ablated using short-interfering RNA (siRNA) that was transferred into the cells using nucleofection 1 d prior to Ca^2+ elevation.

miR-184 [2] = assay: miR-184 induction in scratched HPEK monolayers; details: low Ca2+ (0.07 mM), 5 days
Description: as §3
Total RNA was isolated from cells using the AllPrep DNA/RNA/miRNA Universal kit (Qiagen, Manchester, UK). RNA concentration was determined using a NanoDrop™ 2000c. Complementary DNA (cDNA) was synthesised from 400 ng of RNA using the miScript II RT kit (Qiagen) with HiFlex buffer. PCR amplifications were performed with Quantifast SYBR Green and QuantiTect miRNA/universal primers or RT^2 mRNA primer assays, all from Qiagen. […] Relative expression of miRNA and mRNA determined using the 2^−ΔΔCT relative quantification method (Livak and Schmittgen, 2001).
The inventors maintained the HPEK in low Ca^2+ (0.07 mM) medium and allowed them to approach confluence in 6-well plates prior to wounding. Cells were harvested 5 days later and miR-184 expression assessed as described above. […] In contrast, when extracellular Ca^2+ was raised to 1.5 mM to 5 days to evoke HPEK differentiation, only a relatively modest 10-fold rise in miR-184 expression was detected (FIG. 6d). […]

Molecule | effect on miR-184 expression (miR-184 [1]; 100 nM, vs DMSO) | IVL expression (involucrin (IVL)) | reduction of UCA1 induction (UCA1) | effect on ORAI1 expression (ORAI1) | effect on scratch-evoked induction of miR-184 (miR-184 [2]) | further results
C=C1/C(=C\C=C2/CCC[C@]3(C)[C@@H]([C@H](C)CCCC(C)(C)O)CC[C@@H]23)C[C@@H](O)C[C@@H]1O [1, 25-(OH)2D3, 1, 25-dihydroxyvitamin D3] | did not promote miR-184 expression | evoked robust IVL expression | – | – | – | effect on miR-184 expression (miR-184 [1]; 100 nM, vs DMSO, listed as 1, 25-dihydroxyvitamin D3): neither phorbol ester nor 1, 25-dihydroxyvitamin D3 had any effect
Cc1nnsc1C(=O)Nc1ccc(-n2nc(C(F)(F)F)cc2C(F)(F)F)cc1 [BTP2] | – | – | around 50% | little effect on ORAI1 expression | abolished the induction of miR-184 | –
[Cl][Gd]([Cl])[Cl] [Gd^3+, Gadolinium(III) chloride] | – | – | around 50% | little effect on ORAI1 expression | abolished the induction of miR-184 | –
CCCCCCCCCCCCCC(=O)O[C@@H]1[C@@H](C)[C@@]2(O)[C@@H](C=C(CO)C[C@]3(O)C(=O)C(C)=C[C@@H]23)[C@@H]2C(C)(C)[C@]12OC(C)=O [PMA, phorbol 12-myristate 13-acetate] | did not promote miR-184 expression | evoked robust IVL expression | – | – | – | effect on miR-184 expression (miR-184 [1]; 100 nM, vs DMSO, listed as phorbol ester): neither phorbol ester nor 1, 25-dihydroxyvitamin D3 had any effect
IFNγ: Interferon gamma, reported to trigger keratinocyte differentiation | – | – | – | – | – | effect on miR-184 expression (miR-184 [1]; 10 ng/ml, data not shown): no induction of miR-184 was observed

— US20210186934A1, “COMPOSITIONS AND USES THEREOF” (LIVERPOOL JOHN MOORES UNIVERSITY, priority 2018, published 2021)
